The values that follow come from patent publication US4840966A, “Method of treating hypertension” (Mitsui Norin Co., Ltd., priority 1987, dated 1989).

Series [1] has as its target T1, ACE (Angiotensin I converting enzyme) (Sus scrofa, UniProt F1RRW5).
T1 construct: the ACE obtained from renal cortex of pig; from tissue; host or cells: renal cortex of pig
T1 sequence (F1RRW5 34-1309): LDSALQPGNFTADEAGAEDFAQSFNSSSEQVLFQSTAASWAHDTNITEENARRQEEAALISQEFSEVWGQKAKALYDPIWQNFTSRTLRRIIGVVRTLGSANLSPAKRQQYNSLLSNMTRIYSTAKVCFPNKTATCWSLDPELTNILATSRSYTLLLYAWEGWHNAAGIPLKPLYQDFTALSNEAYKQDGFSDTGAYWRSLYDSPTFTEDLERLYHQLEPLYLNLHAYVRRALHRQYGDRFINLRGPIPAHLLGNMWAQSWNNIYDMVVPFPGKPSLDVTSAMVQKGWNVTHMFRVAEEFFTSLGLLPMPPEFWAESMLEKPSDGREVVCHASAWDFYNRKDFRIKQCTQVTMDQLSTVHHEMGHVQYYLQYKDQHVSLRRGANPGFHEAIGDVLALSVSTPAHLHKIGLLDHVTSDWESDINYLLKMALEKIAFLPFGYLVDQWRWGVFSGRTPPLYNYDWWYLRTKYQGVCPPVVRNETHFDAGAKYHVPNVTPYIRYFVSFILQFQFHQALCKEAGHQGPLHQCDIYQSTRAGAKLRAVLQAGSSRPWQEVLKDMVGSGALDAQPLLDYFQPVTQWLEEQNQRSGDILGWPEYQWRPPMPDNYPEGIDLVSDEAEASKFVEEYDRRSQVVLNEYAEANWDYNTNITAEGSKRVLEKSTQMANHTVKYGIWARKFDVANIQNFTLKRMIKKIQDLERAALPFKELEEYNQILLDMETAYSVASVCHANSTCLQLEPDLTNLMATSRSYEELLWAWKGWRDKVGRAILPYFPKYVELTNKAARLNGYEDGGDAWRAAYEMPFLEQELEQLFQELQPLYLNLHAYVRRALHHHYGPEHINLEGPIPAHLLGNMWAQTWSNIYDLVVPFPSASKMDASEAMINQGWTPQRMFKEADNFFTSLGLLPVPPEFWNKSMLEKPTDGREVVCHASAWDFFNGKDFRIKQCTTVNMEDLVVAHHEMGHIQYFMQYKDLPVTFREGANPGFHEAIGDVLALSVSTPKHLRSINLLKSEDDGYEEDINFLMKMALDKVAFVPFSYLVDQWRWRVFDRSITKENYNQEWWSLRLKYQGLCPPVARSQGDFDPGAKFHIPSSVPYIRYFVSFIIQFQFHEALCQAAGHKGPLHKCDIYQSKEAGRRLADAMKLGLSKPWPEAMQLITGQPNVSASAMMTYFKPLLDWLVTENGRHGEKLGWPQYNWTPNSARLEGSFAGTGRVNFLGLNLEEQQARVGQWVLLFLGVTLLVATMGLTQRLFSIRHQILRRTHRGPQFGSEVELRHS
Put plainly: Inhibition of ACE (Hip-His-Leu substrate, O-phthal aldehyde fluorescence). The class given is biochemical, pig.
Text: The activity of ACE inhibition was expressed by the equation
in which S was the intensity of the fluorescence in the above described procedure with the sample solution, A was the value of the blank test by replacing the sample solution with the same volume of water and B was the value obtained by replacing the enzyme solution with the same volume of pure water.

Series [2] concerns the target T2, carboxypeptidase A (Bos taurus, UniProt P00730).
T2 sequence (P00730 111-419): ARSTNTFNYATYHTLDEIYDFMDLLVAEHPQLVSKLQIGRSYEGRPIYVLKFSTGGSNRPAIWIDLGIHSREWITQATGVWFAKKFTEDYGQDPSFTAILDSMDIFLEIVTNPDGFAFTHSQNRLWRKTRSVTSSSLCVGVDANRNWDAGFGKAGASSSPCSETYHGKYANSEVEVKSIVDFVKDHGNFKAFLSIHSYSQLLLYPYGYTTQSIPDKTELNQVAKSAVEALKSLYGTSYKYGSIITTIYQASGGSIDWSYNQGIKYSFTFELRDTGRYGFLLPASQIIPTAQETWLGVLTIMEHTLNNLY
Put plainly: Inhibition of carboxypeptidase A. Type of series: biochemical.

Series [3] can be described thus: Acute oral toxicity in mice (LD50). The following applies: mouse, in vivo, male ICR mice, 8 weeks old, read-out: LD50 of one week.
The test system of series [4] is Spontaneously Hypertensive Rats. Kind of series: Systolic blood pressure of SHR fed epigallocatechin gallate in the diet (FIG. 4). The class given is in vivo. To be noted: 8 weeks old, 0.5% in diet, after seven weeks feeding, control continued to rise. The text has this: Three SHR (Spontaneously Hypertensive Rats) of 8 weeks old were fed on the diet which consisted of 99.5% of normal diet and 0.5% of epigallocatechin gallate mixed together. As a control two SHR of the same stock were fed on a 100% normal diet. After seven weeks feeding the blood pressure of tea polyphenol fed group levelled off while the blood pressure of the control group continued to rise. In FIG. 4, the curve A denotes the systolic blood pressure of control group while B denotes the systolic blood pressure of test group.

Where [5] appears, read: ACE from renal cortex of pig, Hip-His-Leu substrate, 37° C.

SMILES strings stand for the structures. Like-named read-outs stand apart in the source and are kept apart here.

By IC50 is commonly meant the concentration that inhibits the measured activity by half. Read a high IC50 as weaker potency. Broadly, the LD50 is the dose at which mortality reaches 50%. Take `O=C(O[C@@H]1Cc2c(O)cc(O)cc2O[C@@H]1c1cc(O)c(O)c(O)c1)c1cc(O)c(O)c(O)c1` [(-)-Epigallocatechin gallate, (-)-epigallocatechin gallate]: the IC50 is 90 µM in series [1] and 3000 µM in series [2]. Moreover, the LD50 at 168 h in series [3] is 2310 mg/kg. Moreover, the “blood pressure (in words)” value in series [4] is given as “levelled off”.
In the case of `O=c1c(O)cc([C@H]2Oc3cc(O)cc(O)c3C[C@H]2O)cc2c([C@H]3Oc4cc(O)cc(O)c4C[C@H]3O)cc(O)c(O)c12` [Free theaflavin, free theaflavin], the half-inhibitory concentration (IC50) was 400 µM in series [1] (setting [5]) and greater than 5000 µM in series [2].
In the case of `O=C(O[C@@H]1Cc2c(O)cc(O)cc2O[C@@H]1c1cc(O)c(=O)c2c(O)c(O)cc([C@H]3Oc4cc(O)cc(O)c4C[C@H]3O)c2c1)c1cc(O)c(O)c(O)c1` [Theaflavin monogallate A, theaflavin monogallate A], the IC50 in series [1] (setting [5]) was 115 µM; in series [2], greater than 5000 µM.
On to `O=C(O[C@@H]1Cc2c(O)cc(O)cc2O[C@@H]1c1cc(O)c(O)c2c(=O)c(O)cc([C@H]3Oc4cc(O)cc(O)c4C[C@H]3O)cc12)c1cc(O)c(O)c(O)c1` [Theaflavin monogallate B, theaflavin monogallate B], for which the IC50 in series [1] (setting [5]) is 110 µM; in series [2], greater than 5000 µM.
